Assay results taken from patent US9187424B1, “Aryl dihydropyridinones and piperidinone MGAT2 inhibitors” (Bristol-Myers Squibb Company, priority 2011, dated 2015).

What was measured:
Human MGAT-2 [1] = target: T1, Human MGAT-2 (Homo sapiens (Human), UniProt Q3SYC2); test: MGAT SPA Assay; format: biochemical; settings: membranes from Sf9 cells expressing recombinant human MGAT2; 2-monooleoylglycerol and [3H]-oleoyl-CoA;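 further: inhibition scaled between DMSO vehicle as full MGAT2 activity and membranes of uninfected Sf9 cells as blank, IC50 fitted by logistic curve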
Human MGAT-2 [2] = target: T1, Human MGAT-2; test: MGAT LCMS Assay (human MGAT-2); format: biochemical; settings: human MGAT-2 membranes expressed in Sf9 cells; 2-oleoylglycerol and oleoyl-Coenzyme A; read-out: h-MGAT2 IC50 (nM) LCMS Assay;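 further: diolein product quantified by LC/MS with positive APCI, expressed as peak area ratio versus an internal standard, and this ratio used to derive IC50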

T1 sequence (Q3SYC2 whole entry): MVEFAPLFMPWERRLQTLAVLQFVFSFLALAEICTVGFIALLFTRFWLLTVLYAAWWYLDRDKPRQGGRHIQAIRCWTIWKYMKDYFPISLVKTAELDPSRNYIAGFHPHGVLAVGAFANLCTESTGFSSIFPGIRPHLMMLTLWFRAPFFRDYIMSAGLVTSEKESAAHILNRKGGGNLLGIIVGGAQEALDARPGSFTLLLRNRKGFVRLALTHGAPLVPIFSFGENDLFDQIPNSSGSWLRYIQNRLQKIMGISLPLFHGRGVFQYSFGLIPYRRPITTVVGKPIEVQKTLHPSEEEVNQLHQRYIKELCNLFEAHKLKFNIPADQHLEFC

SMILES	IC50 (Human MGAT-2 [1]) [nM]	IC50 (Human MGAT-2 [2]) [nM]
Cc1ccc(C2=C(NC(=O)c3ccccc3C)C(=O)N[C@@](c3ccc(OCCCC(F)(F)F)cc3)(C(F)(F)F)C2)cc1 [Example 105, (S)-2-Methyl-N-(2-oxo-4-p-tolyl-6-(4-(4,4,4-trifluorobutoxyl)phenyl)-6-(trifluoromethyl)-1,2,5,6-tetrahydropyridin-3-yl)benzamide]	672	24
Cc1ccc(C2=C(C(=O)Nc3ccc(-c4nnn[nH]4)nc3)C(=O)NC(c3ccc(OCCCC(F)(F)F)cc3)(C(F)(F)F)C2)cc1 (stereo not drawn) [Example 111]	9	7
Cc1ccc(C2=C(c3nn[nH]n3)C(=O)NC(c3ccc(Br)cc3)(C(F)(F)F)C2)cc1 (stereo not drawn) [Example 112]	1300	204
Cc1ccc(C2=C(c3nn[nH]n3)C(=O)NC(c3ccc(OCCCC(F)(F)C(F)(F)F)cc3)(C(F)(F)F)C2)cc1 (stereo not drawn) [Example 118]	32	4
Cc1ccc(C2=C(C(=O)Nc3ccc(O)cc3)C(=O)NC(c3ccc(OCCCC(F)(F)F)cc3)(C(F)(F)F)C2)cc1 (stereo not drawn) [Example 122]	14	1
Cc1ccc(C2=C(C(=O)Nc3nn[nH]n3)C(=O)NC(c3ccc(C4=CCCC4)cc3)(C(F)(F)F)C2)cc1 (stereo not drawn) [Example 126]	1870	33
Cc1ccc(C2=C(C(=O)Nc3nn[nH]n3)C(=O)NC(c3cccc(C4=CCCCC4)c3)(C(F)(F)F)C2)cc1 (stereo not drawn) [Example 127]	655	10
Cc1ccc(C2=C(C(=O)Nc3ccno3)C(=O)NC(c3ccc(OCCC(F)(F)F)cc3)(C(F)(F)F)C2)cc1 (stereo not drawn) [Example 130]	20	1
COc1ccc(NC(=O)C2=C(c3ccc(C)cc3)C(F)(F)C(c3ccc(OCCC(F)(F)F)cc3)(C(F)(F)F)NC2=O)cc1 (stereo not drawn) [Example 133]	1520	127
COc1ccc(C2=C(n3cnnn3)C(=O)NC(c3ccc(OCCCC(F)(F)F)cc3)(C(F)(F)F)C2)c(F)c1 (stereo not drawn) [Example 142]	93	10
COc1ccc(C2=C(n3cnnn3)C(=O)NC(c3ccc(OCCCC(F)(F)F)cc3)(C(F)(F)F)C2)cc1 (stereo not drawn) [Example 143]	156	4
N#CC1=C(c2ccc3ccccc3c2)CC(c2ccc(OCCCC(F)(F)F)cc2)(C(F)(F)F)NC1=O (stereo not drawn) [Example 146]	397	25
COc1ccc(NC(=O)C2=C(c3ccc(C)cc3C)CC(c3ccc(OCCCC(F)(F)F)cc3)(C(F)(F)F)NC2=O)cc1 (stereo not drawn) [Example 148]	102	9
O=C1NC(c2ccc(OCCCC(F)(F)F)cc2)(C(F)(F)F)CC(c2ccc(OC(F)F)cc2)=C1n1cnnn1 (stereo not drawn) [Example 149]	53	6
Cc1ccc(C2=C(NC(=O)c3cc(C)no3)C(=O)NC(c3ccc(OCCCC(F)(F)F)cc3)(C(F)(F)F)C2(F)F)cc1 (stereo not drawn) [Example 150]	11	3
Cc1ccc(C2=C(NC(=O)c3nnc(C)o3)C(=O)NC(c3ccc(OCCCC(F)(F)F)cc3)(C(F)(F)F)C2)cc1 (stereo not drawn) [Example 154]	34	8
Cc1ccc(C2=C(NC(=O)c3oncc3C)C(=O)NC(c3ccc(OCCCC(F)(F)F)cc3)(C(F)(F)F)C2)cc1 (stereo not drawn) [Example 157]	168	84
Cc1ccc(C2=C(NC(=O)c3ccc(Cl)nn3)C(=O)NC(c3ccc(OCCCC(F)(F)F)cc3)(C(F)(F)F)C2)cc1 (stereo not drawn) [Example 158]	302	75
COc1ccc(C(=O)NC2=C(c3ccc(C)cc3)C(F)(F)C(c3ccc(OCCCC(F)(F)F)cc3)(C(F)(F)F)NC2=O)cc1 (stereo not drawn) [Example 163]	1180	47
Cc1ccc(C2=C(C(=O)Nc3ccc(F)cc3)C(=O)NC(c3ccc(Oc4ccccc4)cc3)(C(F)(F)F)C2)cc1 (stereo not drawn) [Example 165]	60	8

The remaining lines, values ahead:

IC50 (Human MGAT-2 [1]) [nM]	IC50 (Human MGAT-2 [2]) [nM]	SMILES
237	102	CCCCCCCNC(=O)C1(C)CC(c2ccc(C)cc2)=C(C(=O)Nc2ccc(OC)cc2)C(=O)N1 (stereo not drawn) [Example 166]
8	2	O=C1NC(c2ccc(OCCCC(F)(F)F)cc2)(C(F)(F)F)CC(c2ccc(OC(F)F)cc2)=C1NC(=O)c1ccno1 (stereo not drawn) [Example 167]
724	57	Cc1ccc(C2=C(NC(=O)c3cc(F)ccc3Cl)C(=O)NC(c3ccc(OCCCC(F)(F)F)cc3)(C(F)(F)F)C2)cc1 (stereo not drawn) [Example 171]
16	3	CCCCOc1ccc(C2(C(F)(F)F)CC(c3ccc(OC)cc3)=C(NC(=O)c3ccno3)C(=O)N2)cc1 (stereo not drawn) [Example 172]
43	63	CCCCCCCCCCCCCCCCNC(=O)C1(C)CC(c2ccc(C)cc2)=C(C(=O)Nc2ccc(OC)cc2)C(=O)N1 (stereo not drawn) [Example 173]
237	60	CCCCCCCCNC(=O)C1(C)CC(c2ccc(C)cc2)=C(C(=O)Nc2ccc(OC)cc2)C(=O)N1 (stereo not drawn) [Example 174]
47	78	COc1ccc(NC(=O)C2=C(c3ccc(C)cc3)CC(C)(C(=O)NCCCCc3ccccc3)NC2=O)cc1 (stereo not drawn) [Example 178]
24	2	Cc1ccc(C2=C(NC(=O)c3cc(Br)no3)C(=O)NC(c3ccc(OCCCC(F)(F)F)cc3)(C(F)(F)F)C2)cc1 (stereo not drawn) [Example 179]
36	30	Cc1ccc(C2=C(NC(=O)c3cc(OCc4ccccc4)no3)C(=O)NC(c3ccc(OCCCC(F)(F)F)cc3)(C(F)(F)F)C2)cc1 (stereo not drawn) [Example 180]
21	10	COc1cnc(NC(=O)C2=C(c3ccc(C)cc3)CC(c3ccc(OCCCCC(F)(F)F)cc3)(C(F)(F)F)NC2=O)cn1 (stereo not drawn) [Example 273]
